The nature of data set [1]: Brain to plasma partition coefficient, Kp of the compound in Sprague-Dawley rat at 0.2 to […], iv administered as cassette dose measured at […] post dose by LC-MS/MS analysis. It counts as ADME, organism-based. The note with it: brain and plasma.
Data set [2] is described as follows: Unbound brain to plasma concentration ratio in Sprague-Dawley rat at 0.2 to […], iv administered as cassette dose measured at […] post dose by LC-MS/MS analysis. It counts as ADME, organism-based. The note with it: brain and plasma, read-out: K(p,uu,brain).
Data set [3] concerns the target T1, Metabotropic glutamate receptor 4 (Homo sapiens, UniProt Q14833). The data set can be described thus: Negative allosteric modulation of human mGlu4 receptor expressed in CHO cells co-expressing Gqi5 harboring GIRK channel assessed as decrease in glutamate-induced thallium flux incubated for 142 secs followed by glutamate addition measured after 120 secs by Fluo4-AM dye based fluorescence assay. Format: functional, cell-based.

For data set [4], the target named is T2, Metabotropic glutamate receptor 8 (Rattus norvegicus, UniProt P70579). The data set can be described thus: Negative allosteric modulation of rat mGlu8 receptor expressed in HEK cells co-expressing Galphai5 assessed as decrease in glutamate-induced thallium flux incubated for 142 secs followed by glutamate addition measured after 120 secs by Fluo4-AM dye based fluorescence assay. Format: functional, cell-based.
T2 sequence (P70579 whole entry): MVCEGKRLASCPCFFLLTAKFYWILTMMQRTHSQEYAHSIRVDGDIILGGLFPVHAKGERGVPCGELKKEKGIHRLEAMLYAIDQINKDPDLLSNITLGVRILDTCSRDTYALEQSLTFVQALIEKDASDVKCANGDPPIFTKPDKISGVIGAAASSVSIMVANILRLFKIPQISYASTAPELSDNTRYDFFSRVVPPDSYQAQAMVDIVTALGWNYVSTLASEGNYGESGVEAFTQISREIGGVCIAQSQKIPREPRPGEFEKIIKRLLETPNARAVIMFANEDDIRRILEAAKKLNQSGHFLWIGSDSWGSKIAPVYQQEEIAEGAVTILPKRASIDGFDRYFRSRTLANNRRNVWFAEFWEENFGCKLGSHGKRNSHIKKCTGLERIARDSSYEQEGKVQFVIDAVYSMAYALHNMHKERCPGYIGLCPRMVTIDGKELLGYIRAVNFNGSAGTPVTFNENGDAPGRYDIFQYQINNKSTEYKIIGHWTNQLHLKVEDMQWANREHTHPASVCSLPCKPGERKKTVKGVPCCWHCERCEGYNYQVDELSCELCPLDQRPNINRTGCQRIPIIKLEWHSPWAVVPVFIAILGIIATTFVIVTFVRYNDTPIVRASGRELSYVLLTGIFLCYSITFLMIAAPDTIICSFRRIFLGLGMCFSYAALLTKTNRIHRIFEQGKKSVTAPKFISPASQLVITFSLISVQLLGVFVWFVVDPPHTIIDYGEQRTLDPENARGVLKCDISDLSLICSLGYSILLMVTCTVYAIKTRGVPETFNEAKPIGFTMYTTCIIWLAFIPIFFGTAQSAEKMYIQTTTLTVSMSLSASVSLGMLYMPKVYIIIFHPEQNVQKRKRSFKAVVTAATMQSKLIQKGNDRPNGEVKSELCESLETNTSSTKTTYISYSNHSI

In data set [5] the target is T3, Metabotropic glutamate receptor 7 (Rattus norvegicus, UniProt P35400). In words: Negative allosteric modulation of rat mGlu7 receptor expressed in HEK cells co-expressing Galphai5 assessed as decrease in glutamate-induced thallium flux incubated for 142 secs followed by glutamate addition measured after 120 secs by Fluo4-AM dye based fluorescence assay. Format: functional, cell-based.
T3 sequence (P35400 whole entry): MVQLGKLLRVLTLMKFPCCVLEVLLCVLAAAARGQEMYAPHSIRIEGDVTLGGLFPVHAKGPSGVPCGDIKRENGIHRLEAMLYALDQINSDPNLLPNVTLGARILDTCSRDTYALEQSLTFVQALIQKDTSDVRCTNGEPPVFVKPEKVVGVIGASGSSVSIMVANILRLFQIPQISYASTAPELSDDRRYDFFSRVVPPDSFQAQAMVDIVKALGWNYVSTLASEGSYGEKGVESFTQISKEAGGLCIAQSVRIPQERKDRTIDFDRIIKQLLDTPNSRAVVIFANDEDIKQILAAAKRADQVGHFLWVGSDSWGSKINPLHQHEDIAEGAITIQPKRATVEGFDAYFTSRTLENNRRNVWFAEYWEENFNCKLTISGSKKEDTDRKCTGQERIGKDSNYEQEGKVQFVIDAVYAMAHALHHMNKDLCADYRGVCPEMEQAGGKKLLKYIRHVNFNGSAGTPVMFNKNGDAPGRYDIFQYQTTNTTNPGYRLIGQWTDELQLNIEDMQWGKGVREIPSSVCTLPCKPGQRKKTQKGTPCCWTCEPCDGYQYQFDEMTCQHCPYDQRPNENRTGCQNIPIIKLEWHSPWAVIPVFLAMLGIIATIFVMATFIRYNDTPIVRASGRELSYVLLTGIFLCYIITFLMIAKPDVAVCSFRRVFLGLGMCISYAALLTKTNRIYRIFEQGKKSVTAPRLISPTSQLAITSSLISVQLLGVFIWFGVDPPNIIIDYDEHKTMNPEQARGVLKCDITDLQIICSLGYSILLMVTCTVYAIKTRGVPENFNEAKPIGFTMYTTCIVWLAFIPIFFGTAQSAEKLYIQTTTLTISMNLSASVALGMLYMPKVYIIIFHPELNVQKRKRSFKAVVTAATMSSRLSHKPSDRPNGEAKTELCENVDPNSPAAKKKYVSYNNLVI

Data set [6] addresses T3, Metabotropic glutamate receptor 7. In words: Positive allosteric modulation of rat mGlu7 receptor expressed in HEK cells co-expressing Galphai5 assessed as increase in glutamate-induced calcium flux incubated for 142 secs followed by glutamate addition measured after 120 secs by Fluo4-AM dye based fluorescence assay. Format: functional, cell-based. In general terms: Calcium flux is commonly read through the fluorescence of an indicator in the cells.

Data set [7] concerns the target T1, Metabotropic glutamate receptor 4. The data set can be described thus: Positive allosteric modulation of human mGlu4 receptor expressed in CHO cells co-expressing Gqi5 assessed as increase in glutamate-induced calcium mobilization incubated for 142 secs followed by glutamate addition measured after 120 secs by Fluo4-AM dye based fluorescence assay. Format: functional, cell-based.

The target in data set [8] is T2, Metabotropic glutamate receptor 8. In words: Positive allosteric modulation of rat mGlu8 receptor expressed in HEK cells co-expressing Galphai5 assessed as increase in glutamate-induced calcium flux incubated for 142 secs followed by glutamate addition measured after 120 secs by Fluo4-AM dye based fluorescence assay. It counts as functional, cell-based.
Another data set concerns the target T4, Cytochrome P450 1A2 (Homo sapiens, UniProt P05177).
T4 sequence (P05177 whole entry): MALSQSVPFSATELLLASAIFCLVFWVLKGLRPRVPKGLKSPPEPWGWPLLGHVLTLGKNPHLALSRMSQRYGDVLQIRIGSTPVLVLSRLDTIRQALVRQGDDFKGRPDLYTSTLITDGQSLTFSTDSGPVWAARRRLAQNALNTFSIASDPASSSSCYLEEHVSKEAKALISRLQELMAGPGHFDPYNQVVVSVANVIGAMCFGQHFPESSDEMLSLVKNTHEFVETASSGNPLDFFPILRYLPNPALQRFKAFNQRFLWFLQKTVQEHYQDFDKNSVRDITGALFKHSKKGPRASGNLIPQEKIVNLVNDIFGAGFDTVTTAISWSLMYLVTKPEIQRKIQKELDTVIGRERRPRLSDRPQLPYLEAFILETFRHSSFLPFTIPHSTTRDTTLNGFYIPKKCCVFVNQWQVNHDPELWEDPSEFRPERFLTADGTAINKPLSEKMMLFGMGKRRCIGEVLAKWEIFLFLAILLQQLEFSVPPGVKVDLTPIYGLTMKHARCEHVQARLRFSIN
In words: Inhibition of CYP1A2 in human liver microsomes using phenacetin as substrate preincubated for 15 mins followed by NADPH addition measured after 8 mins by LC-MS/MS analysis. Format: ADME. (In general: Liver microsomes are vesicles of endoplasmic reticulum, rich in cytochrome P450 enzymes.)

The next data set addresses Cytochrome P450 2C9 (Homo sapiens, UniProt P11712). The data set can be described thus: Inhibition of CYP2C9 in human liver microsomes using diclofenac as substrate preincubated for 15 mins followed by NADPH addition measured after 8 mins by LC-MS/MS analysis. Format: ADME.
A further data set deals with Cytochrome P450 3A4 (Homo sapiens, UniProt P08684). In words: Inhibition of CYP3A4 in human liver microsomes using midazolam as substrate preincubated for 15 mins followed by NADPH addition measured after 8 mins by LC-MS/MS analysis. Format: ADME.
Chain of Cytochrome P450 3A4 (P08684 whole entry): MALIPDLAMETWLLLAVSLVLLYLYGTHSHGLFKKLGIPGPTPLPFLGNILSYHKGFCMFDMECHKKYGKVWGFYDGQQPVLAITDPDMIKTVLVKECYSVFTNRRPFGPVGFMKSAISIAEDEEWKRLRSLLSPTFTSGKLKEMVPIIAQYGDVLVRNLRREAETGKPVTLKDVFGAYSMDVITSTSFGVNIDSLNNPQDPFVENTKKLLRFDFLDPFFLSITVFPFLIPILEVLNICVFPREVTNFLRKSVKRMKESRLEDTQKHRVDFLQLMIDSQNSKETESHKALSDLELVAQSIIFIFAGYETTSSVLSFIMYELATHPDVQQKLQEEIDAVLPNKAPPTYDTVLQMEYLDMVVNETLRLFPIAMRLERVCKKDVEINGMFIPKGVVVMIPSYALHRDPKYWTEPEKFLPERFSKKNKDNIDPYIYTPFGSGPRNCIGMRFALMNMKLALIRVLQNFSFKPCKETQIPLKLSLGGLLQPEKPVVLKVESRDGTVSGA
The target in the next data set is Cytochrome P450 2D6 (Homo sapiens, UniProt P10635). The data set can be described thus: Inhibition of CYP2D6 in human liver microsomes using dextromethorphan as substrate preincubated for 15 mins followed by NADPH addition measured after 8 mins by LC-MS/MS analysis. It counts as ADME.
Chain of Cytochrome P450 2D6 (P10635 whole entry): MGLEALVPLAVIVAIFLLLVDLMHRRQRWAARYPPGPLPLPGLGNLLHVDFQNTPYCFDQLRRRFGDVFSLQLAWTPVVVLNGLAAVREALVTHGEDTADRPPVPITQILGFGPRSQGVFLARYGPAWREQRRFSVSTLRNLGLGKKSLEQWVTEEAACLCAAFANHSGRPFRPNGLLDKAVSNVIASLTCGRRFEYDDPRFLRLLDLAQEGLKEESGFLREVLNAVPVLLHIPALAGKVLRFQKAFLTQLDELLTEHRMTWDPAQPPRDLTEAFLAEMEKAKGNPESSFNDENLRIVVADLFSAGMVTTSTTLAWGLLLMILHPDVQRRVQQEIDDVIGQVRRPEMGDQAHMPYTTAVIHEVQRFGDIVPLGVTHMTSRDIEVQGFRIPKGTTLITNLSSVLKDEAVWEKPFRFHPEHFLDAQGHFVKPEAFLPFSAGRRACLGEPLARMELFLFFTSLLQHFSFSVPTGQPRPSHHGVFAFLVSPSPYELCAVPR

Structures are written as SMILES. A value given as a limit tells only on which side of the number the result lay.

Chain of Cytochrome P450 2C9 (P11712 whole entry): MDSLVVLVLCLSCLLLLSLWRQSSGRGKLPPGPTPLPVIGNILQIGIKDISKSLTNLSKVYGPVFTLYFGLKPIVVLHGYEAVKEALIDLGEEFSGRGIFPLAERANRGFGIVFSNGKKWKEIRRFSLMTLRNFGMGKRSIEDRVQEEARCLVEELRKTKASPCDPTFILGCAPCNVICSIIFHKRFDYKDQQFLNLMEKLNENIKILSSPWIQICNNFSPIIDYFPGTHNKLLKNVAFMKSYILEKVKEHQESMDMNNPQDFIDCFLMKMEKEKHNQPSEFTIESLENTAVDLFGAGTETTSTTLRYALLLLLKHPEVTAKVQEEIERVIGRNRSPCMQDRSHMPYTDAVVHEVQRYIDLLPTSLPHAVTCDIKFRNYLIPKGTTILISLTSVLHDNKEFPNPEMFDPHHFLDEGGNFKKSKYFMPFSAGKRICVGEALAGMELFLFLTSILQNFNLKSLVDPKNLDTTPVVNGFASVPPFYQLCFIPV
T1 sequence (Q14833 whole entry): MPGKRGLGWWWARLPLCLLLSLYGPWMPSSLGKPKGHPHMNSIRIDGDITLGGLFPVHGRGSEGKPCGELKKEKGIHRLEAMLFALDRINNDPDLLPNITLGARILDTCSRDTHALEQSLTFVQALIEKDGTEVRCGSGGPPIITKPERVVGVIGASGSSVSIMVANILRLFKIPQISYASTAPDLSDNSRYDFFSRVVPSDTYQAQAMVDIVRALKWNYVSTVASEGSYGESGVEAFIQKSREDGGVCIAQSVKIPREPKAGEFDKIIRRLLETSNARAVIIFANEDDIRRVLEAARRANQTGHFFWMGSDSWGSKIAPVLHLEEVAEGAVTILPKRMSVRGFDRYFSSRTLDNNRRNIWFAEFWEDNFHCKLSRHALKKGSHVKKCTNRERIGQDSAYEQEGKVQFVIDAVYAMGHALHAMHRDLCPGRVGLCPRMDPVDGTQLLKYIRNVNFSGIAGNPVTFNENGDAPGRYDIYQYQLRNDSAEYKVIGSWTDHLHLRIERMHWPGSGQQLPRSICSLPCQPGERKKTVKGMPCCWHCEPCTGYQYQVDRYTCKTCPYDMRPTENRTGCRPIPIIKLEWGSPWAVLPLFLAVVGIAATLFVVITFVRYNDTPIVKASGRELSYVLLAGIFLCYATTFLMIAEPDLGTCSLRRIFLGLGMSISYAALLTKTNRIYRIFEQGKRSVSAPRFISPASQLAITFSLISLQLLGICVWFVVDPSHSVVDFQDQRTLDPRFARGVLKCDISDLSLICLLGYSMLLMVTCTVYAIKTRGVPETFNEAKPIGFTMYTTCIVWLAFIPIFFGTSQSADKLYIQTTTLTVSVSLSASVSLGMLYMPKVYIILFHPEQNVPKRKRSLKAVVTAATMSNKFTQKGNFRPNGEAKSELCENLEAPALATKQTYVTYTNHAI

Turning to `COc1ccc(-c2c(C)nn3c(C(F)(F)F)cc(C)nc23)c(F)c1`, the Kp at […] in data set [1] stood at 1.4. In data set [2], the Kp uu at […] is 0.9.

For `CCc1nc2c(o1)CC(c1ccc(C)cc1C)CC2=O` (configuration not stated), the concentration for half-maximal inhibition (IC50) in data set [3] was over 10 µM; in [4] it was over 10 µM; in data set [5], 0.65 µM.

As to `COC(=O)c1ccc(-n2c(C)cc(C(=O)CSc3ccc(NC(C)=O)cc3)c2C)cc1`, the values for the EC50 in [6], in data set [7] and in data set [8] were 1.5 µM, 3.2 µM and 0.9 µM, respectively.

For `COc1ccc(-c2c(C)nn3c(C(F)(F)F)cc(C)nc23)cc1`, the IC50 on Cytochrome P450 1A2 is 0.69 µM; at Cytochrome P450 2C9, over 30 µM; against Cytochrome P450 3A4, over 30 µM; at Cytochrome P450 2D6 it was over 30 µM. Also, in data set [1], the concentration ratio (Kp) at […] was 1.4.

As for `COc1ccc(-c2c(C)nn3c(C(F)(F)F)cc(C)nc23)cc1F`, the IC50 against Cytochrome P450 1A2 was 0.33 µM; against Cytochrome P450 2C9 it was 27 µM; on Cytochrome P450 3A4, over 30 µM; against Cytochrome P450 2D6, over 30 µM. Besides, the Kp at […] in data set [1] turned out to be 4.3.

As for `COc1cc(F)c(-c2c(C)nn3c(C(F)(F)F)cc(C)nc23)cc1F`, the half-inhibitory concentration (IC50) against Cytochrome P450 1A2 was 2.93 µM; on Cytochrome P450 2C9, over 30 µM; at Cytochrome P450 3A4, over 30 µM; on Cytochrome P450 2D6, over 30 µM. Besides, the Kp at […] in data set [1] turned out to be 2.7.

For `COc1cc(F)c(-c2c(C)nn3c(C(F)(F)F)cc(C)nc23)c(F)c1`, the IC50 on Cytochrome P450 1A2 was 8.67 µM; on Cytochrome P450 2C9, over 30 µM; on Cytochrome P450 3A4, over 30 µM; on Cytochrome P450 2D6, over 30 µM. The same compound came in with a Kp at […] in [1] of 2.2.

For the compound `COc1ccc(-c2c(C)nn3c(C(F)(F)F)cc(C)nc23)cc1Cl`, the Kp at […] in data set [1] is 4.8. Besides, in [2], the Kp uu at […] was 1.7.

For `Cc1cc(C(F)(F)F)n2nc(C)c(-c3ccc(OC(F)F)cc3)c2n1`, the Kp at […] in data set [1] came to 1.5. Besides, the Kp uu at […] in data set [2] came to 0.8.

One may read the Kp as tissue or fluid exposure divided by exposure in the circulation. The term IC50 denotes the concentration at which inhibition is half-maximal. In general, EC50 refers to the concentration that produces a half-maximal response.

(Values after ChEMBL document CHEMBL4138139, “Discovery of VU6005649, a CNS Penetrant mGlu7/8 Receptor PAM Derived from a Series of Pyrazolo[1,5-a]pyrimidines” (ACS Med Chem Lett, 2017).)
